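96-well plates; 48 h exposure; 5 concentrations. Endpoints by linear interpolation between flanking doses. Not reached: highest tested concentration assigned. GI50 marks 50% less growth.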 Active and inactive are the calls of the source. No stated cut-off is given here; in the data, active = GI50 up to about 1.1 µM and inactive = higher.
Columns and labels:
Experiment in all cases: NCI anticancer screen, dose series, 48 h
SNB-78 = tested on: SNB-78
NCI-H23 = tested on: NCI-H23
SNB-75 = tested on: SNB-75
OVCAR-8 = tested on: OVCAR-8
SK-MEL-2 = tested on: SK-MEL-2
HL-60 = tested on: HL-60
OVCAR-5 = tested on: OVCAR-5
DLD-1 = tested on: DLD-1
HOP-62 = tested on: HOP-62
SNB-19 = tested on: SNB-19
CAKI-1 = tested on: CAKI-1
KM12 = tested on: KM12
ACHN = tested on: ACHN
DMS-114 = tested on: DMS-114
SW-620 = tested on: SW-620
UO-31 = tested on: UO-31
COLO 205 = tested on: COLO 205
UACC-257 = tested on: UACC-257
LXFL 529 = tested on: LXFL 529
786-0 = tested on: 786-0
SF-295 = tested on: SF-295
HT-29 = tested on: HT-29
SF-539 = tested on: SF-539
DMS-273 = tested on: DMS-273
HOP-18 = tested on: HOP-18
NCI-H522 = tested on: NCI-H522
HOP-92 = tested on: HOP-92
A549 = tested on: A549
M19-MEL = tested on: M19-MEL
KM-20L2 = tested on: KM-20L2
RXF 393 = tested on: RXF 393
OVCAR-4 = tested on: OVCAR-4
NCI-H226 = tested on: NCI-H226
LOX IMVI = tested on: LOX IMVI
NCI-H460 = tested on: NCI-H460
M14 = tested on: M14
EKVX = tested on: EKVX
TK-10 = tested on: TK-10
SF-268 = tested on: SF-268
SK-MEL-28 = tested on: SK-MEL-28
U-251 = tested on: U-251
SN12C = tested on: SN12C
HCC 2998 = tested on: HCC 2998
SR = tested on: SR
UACC-62 = tested on: UACC-62
MDA-N = tested on: MDA-N
NCI/ADR-RES = tested on: NCI/ADR-RES
K562 = tested on: K562
HCT-15 = tested on: HCT-15
DU-145 = tested on: DU-145
BT-549 = tested on: BT-549
OVCAR-3 = tested on: OVCAR-3
A498 = tested on: A498
HCT-116 = tested on: HCT-116
PC-3 = tested on: PC-3
Malme-3M = tested on: Malme-3M
SK-MEL-5 = tested on: SK-MEL-5
MDA-MB-435 = tested on: MDA-MB-435
XF498 = tested on: XF498
IGROV-1 = tested on: IGROV-1
SK-OV-3 = tested on: SK-OV-3
MDA-MB-231 = tested on: MDA-MB-231
Hs-578T = tested on: Hs-578T
CCRF-CEM = tested on: CCRF-CEM
RPMI-8226 = tested on: RPMI-8226
MCF7 = tested on: MCF7
MOLT-4 = tested on: MOLT-4
T47D = tested on: T47D

With `COC(=O)N(C(=O)OC)C(C(=O)O)C(C)C` (stereo not given) the GI50 (SNB-78) was > 100 µM (inactive), the GI50 (NCI-H23) was > 100 µM (inactive) and the GI50 (SNB-75) was > 100 µM (inactive). For the same molecule, the GI50 (OVCAR-8) was > 100 µM (inactive), the GI50 (SK-MEL-2) was > 100 µM (inactive) and the GI50 (HL-60) was > 100 µM (inactive). For the same molecule, the GI50 (OVCAR-5) was > 100 µM (inactive), the GI50 (DLD-1) was > 100 µM (inactive) and the GI50 (HOP-62) was > 100 µM (inactive). The GI50 (SNB-19) was > 100 µM (inactive), the GI50 (CAKI-1) was > 100 µM (inactive) and the GI50 (KM12) was > 100 µM (inactive). The GI50 (ACHN) was > 100 µM (inactive), the GI50 (DMS-114) was > 100 µM (inactive) and the GI50 (SW-620) was > 100 µM (inactive). For the same molecule, the GI50 (UO-31) was > 100 µM (inactive), the GI50 (COLO 205) was > 100 µM (inactive) and the GI50 (UACC-257) was > 100 µM (inactive). For the same molecule, the GI50 (LXFL 529) was > 100 µM (inactive), the GI50 (786-0) was > 100 µM (inactive) and the GI50 (SF-295) was > 100 µM (inactive). For the same molecule, the GI50 (HT-29) was > 100 µM (inactive), the GI50 (SF-539) was > 100 µM (inactive) and the GI50 (DMS-273) was > 100 µM (inactive). The GI50 (HOP-18) was > 100 µM (inactive), the GI50 (NCI-H522) was > 100 µM (inactive) and the GI50 (HOP-92) was 95.9 µM (inactive). For the same molecule, the GI50 (A549) was > 100 µM (inactive), the GI50 (M19-MEL) was > 100 µM (inactive) and the GI50 (KM-20L2) was > 100 µM (inactive). The GI50 (RXF 393) was 65 µM (inactive), the GI50 (OVCAR-4) was > 100 µM (inactive) and the GI50 (NCI-H226) was > 100 µM (inactive). For the same molecule, the GI50 (LOX IMVI) was > 100 µM (inactive), the GI50 (NCI-H460) was > 100 µM (inactive) and the GI50 (M14) was > 100 µM (inactive). The GI50 (EKVX) was > 100 µM (inactive), the GI50 (TK-10) was > 100 µM (inactive) and the GI50 (SF-268) was > 100 µM (inactive). The GI50 (SK-MEL-28) was > 100 µM (inactive), the GI50 (U-251) was > 100 µM (inactive) and the GI50 (SN12C) was > 100 µM (inactive). For the same molecule, the GI50 (HCC 2998) was > 100 µM (inactive).

With `CCCCCCCCCCCCCCCCCCOP(=O)([O-])OC1CC[N+](C)(C)CC1` [PERIFOSINE] the GI50 (SR) was 1.11 µM (active), the GI50 (SNB-78) was 23.4 µM (inactive) and the GI50 (NCI-H23) was 16.1 µM (inactive). The GI50 (SNB-75) was 5.14 µM (inactive), the GI50 (OVCAR-8) was 14.7 µM (inactive) and the GI50 (UACC-62) was 8.39 µM (inactive). The GI50 (MDA-N) was 12.4 µM (inactive), the GI50 (NCI/ADR-RES) was 14 µM (inactive) and the GI50 (SK-MEL-2) was 13.8 µM (inactive). The GI50 (HL-60) was 1.19 µM (inactive), the GI50 (OVCAR-5) was 2.52 µM (inactive) and the GI50 (DLD-1) was 10.4 µM (inactive). The GI50 (HOP-62) was 7.53 µM (inactive), the GI50 (SNB-19) was 9.25 µM (inactive) and the GI50 (CAKI-1) was 3.6 µM (inactive). The GI50 (K562) was 16.4 µM (inactive), the GI50 (HCT-15) was 2.48 µM and the GI50 (DU-145) was 16.9 µM (inactive). The GI50 (BT-549) was 12.2 µM (inactive), the GI50 (KM12) was 0.53 µM (active) and the GI50 (ACHN) was 12.4 µM (inactive). The GI50 (DMS-114) was 12.5 µM (inactive), the GI50 (OVCAR-3) was 13.2 µM (inactive) and the GI50 (SW-620) was 8.05 µM (inactive). For the same molecule, the GI50 (A498) was 3.22 µM (inactive), the GI50 (UO-31) was 8.91 µM (inactive) and the GI50 (COLO 205) was 3.24 µM (inactive). For the same molecule, the GI50 (UACC-257) was 19.8 µM (inactive), the GI50 (LXFL 529) was 4.03 µM (inactive) and the GI50 (786-0) was 2.73 µM (inactive). For the same molecule, the GI50 (SF-295) was 4.98 µM (inactive), the GI50 (HCT-116) was 7.94 µM (inactive) and the GI50 (HT-29) was 3.56 µM (inactive). For the same molecule, the GI50 (PC-3) was 0.873 µM (active), the GI50 (SF-539) was 15.6 µM (inactive) and the GI50 (DMS-273) was 2.86 µM (inactive). The GI50 (Malme-3M) was 7.06 µM (inactive), the GI50 (NCI-H522) was 2.97 µM (inactive) and the GI50 (HOP-92) was 3.38 µM (inactive). The GI50 (SK-MEL-5) was 15.8 µM (inactive), the GI50 (MDA-MB-435) was 14.7 µM (inactive) and the GI50 (XF498) was 15.7 µM (inactive). For the same molecule, the GI50 (IGROV-1) was 2.18 µM (inactive), the GI50 (SK-OV-3) was 5.64 µM (inactive) and the GI50 (A549) was 10.7 µM (inactive). The GI50 (M19-MEL) was 4.01 µM (inactive), the GI50 (KM-20L2) was 2.24 µM (inactive) and the GI50 (RXF 393) was 1.79 µM (inactive). For the same molecule, the GI50 (MDA-MB-231) was 6.89 µM (inactive), the GI50 (OVCAR-4) was > 9.95 µM (inactive) and the GI50 (Hs-578T) was 13 µM (inactive). The GI50 (NCI-H226) was 11.2 µM (inactive), the GI50 (CCRF-CEM) was 0.714 µM (active) and the GI50 (LOX IMVI) was 7.43 µM (inactive). The GI50 (NCI-H460) was 1.75 µM (inactive), the GI50 (M14) was 2.97 µM (inactive) and the GI50 (RPMI-8226) was 3.83 µM (inactive). For the same molecule, the GI50 (EKVX) was 11.3 µM (inactive), the GI50 (MCF7) was 15.7 µM (inactive) and the GI50 (TK-10) was 2.04 µM (inactive). For the same molecule, the GI50 (SF-268) was 9.89 µM (inactive), the GI50 (MOLT-4) was 3.4 µM (inactive) and the GI50 (T47D) was 17.9 µM (inactive). The GI50 (SK-MEL-28) was 17.9 µM (inactive), the GI50 (U-251) was 12.4 µM (inactive) and the GI50 (SN12C) was 4.6 µM (inactive). For the same molecule, the GI50 (HCC 2998) was 5.16 µM (inactive).
